# Source: US7341857B2, “Production of beta-hydroxypalmitate methyl esterase from Ideonella sp.0-0013 (FERM BP-08660)” (Incorporated Administrative Agency National Agriculture and …, priority 2003, dated 2008)
# Legend:
# [1] = system: esterase derived from Ideonella sp. 0-0013 strain; assay: Decomposing activities of methyl palmitate or methyl 3-hydroxypalmitate (Test Example 2, substrate selectivity); assay type: biochemical; conditions: for Decomposition: 0.5 mg of substrate; for Activity ratio: methyl 3-hydroxypalmitate = 100.0
# Description: The culture broth obtained by cultivating the strain in the same manner as that in Example 1 was centrifuged to obtain a supernatant and microbial cells. The supernatant or the microbial cells were suspended in 200 μL of 10 mM potassium phosphate buffer (pH 7.0) containing 0.5 mg of methyl 3-hydroxypalmitate, and the resultant was allowed to react at 43° C. for 12 hours.
# After completion of the reaction, 500 μL of dichloromethane was added to the reaction mixture to extract 3-hydroxypalmitic acid. The extract was subjected to gas chromatography (Stabilwax-DA, 30 m×0.53 mm×0.25 μm) to measure the decomposing activity of methyl 3-hydroxypalmitate.
# 0.5 mg of methyl palmitate or methyl 3-hydroxypalmitate was reacted and analyzed in the same manner as that in Example 1 and the decomposing activities of the compounds were measured in each case.
# [2] = system: esterase derived from Ideonella sp. 0-0013 strain; assay: Inhibition, activation and stabilization of the esterase; assay type: biochemical
# Description: Methyl 3-hydroxypalmitate is detected by gas chromatography with a column of Stabilwax-DA, 30 m×0.53 mm×0.25 μm. The 3-hydroxypalmitic acid generated by hydrolysis of the ester can be detected by the same gas chromatography as described above. • (2) Optimal temperature for functioning: The optimal temperature of the enzyme of the present invention is 37° C. • (3) Optimal pH and stable pH range: pH 7 or more to pH 10 or less. • (4) Temperature stability: 97% of the enzyme is stable at 43° C., 54% of the enzyme is stable at 50° C., and 38% of the enzyme is stable at 60° C. • (5) Inhibition, activation, and stabilization: Activated by sodium ion and potassium ion, and inhibited by strontium ion, iron ion (divalent), and methyl palmitate. • (6) Molecular weight: About 46,500 Da (by SDS-PAGE), about 41,000 Da (by a gel filtration method). • (7) Isoelectric point: pI 4 (by polyacrylamide gel isoelectric focusing method).
compound,measurement,setting,value
"CCCCCCCCCCCCCC(O)CC(=O)OC (stereo not shown) [Methyl 3-hydroxypalmitate, methyl 3-hydroxypalmitate]",hydrolytic activity relative to that for methyl palmitate,[1],about 5 times
same,Decomposition,[1],50.3%
same,Activity ratio,[1],100.0
"CCCCCCCCCCCCCCCC(=O)OC [Methyl palmitate, methyl palmitate]",Decomposition,[1],10.3%
same,Activity ratio,[1],20.5
same,"Inhibition, activation, and stabilization (effect on the esterase)",[2],inhibited
[Fe+2] [iron ion (divalent)],"Inhibition, activation, and stabilization (effect on the esterase)",[2],inhibited
[K+] [potassium ion],"Inhibition, activation, and stabilization (effect on the esterase)",[2],Activated
[Na+] [sodium ion],"Inhibition, activation, and stabilization (effect on the esterase)",[2],Activated
[Sr+2] [strontium ion],"Inhibition, activation, and stabilization (effect on the esterase)",[2],inhibited
